Experimental findings from ChEMBL document CHEMBL2406915, “Antimalarial and cytotoxic activities of chiral triamines” (Bioorg Med Chem Lett, 2013) are described below.

In brackets after ≈: the same amount, converted by molar mass.

Data set [1] is described as follows: Cytotoxicity against human KB cells. The data set is classed as cell-based. The settings on record: read-out: ED50 (the source's name).
A short description of data set [2]: Toxicity index, ratio of ED50 for human KB cells to ED50 for […] Plasmodium falciparum 3D7. The settings on record: KB cells versus Plasmodium falciparum 3D7, read-out: Ratio ED50. The data set is classed as cell-based.
In data set [3] the test system is Plasmodium falciparum. Kind of data set: Antimalarial activity against […] Plasmodium falciparum 3D7. The settings on record: for EC50: read-out: ED50 (the source's name). The data set is classed as functional, organism-based.

Regarding `CNC[C@H](Cc1ccc2ccccc2c1)NC[C@@H](Cc1ccc2ccccc2c1)NCCc1ccc(Cl)c(Cl)c1`, the CC50 in data set [1] turned out to be 5.53 µg/mL (≈ 9.69 µM). Also, the selectivity ratio in data set [2] came out at 23. Further, in data set [3], the EC50 turned out to be 0.24 µg/mL (≈ 0.421 µM).
Regarding `CCOc1ccc(CCN[C@H](CN[C@@H](CNC)CC2CCCCC2)Cc2ccc3ccccc3c2)cc1`, the CC50 in data set [1] was 3.1 µg/mL (≈ 6.18 µM). In data set [2], the selectivity ratio worked out at 19.3. In addition, the EC50 in data set [3] came to 0.16 µg/mL (≈ 0.319 µM).
In the same order, the values of `CNC[C@H](Cc1ccc2ccccc2c1)NC[C@H](Cc1ccc2ccccc2c1)NCC(C)c1ccc(CC(C)C)cc1` (stereo not given in full) are 2.09 µg/mL (≈ 3.65 µM), 11.6 and 0.18 µg/mL (≈ 0.315 µM).
Turning to `CNC[C@@H](Cc1ccccc1)NC[C@@H](Cc1ccc2ccccc2c1)NCC1CCC(C)CC1` (stereo not given in full), the CC50 in data set [1] was 1.73 µg/mL (≈ 3.78 µM). For the same compound, the selectivity ratio in data set [2] amounted to 8.23. Further, the EC50 in data set [3] stood at 0.22 µg/mL (≈ 0.481 µM).
With `CNC[C@@H](Cc1ccccc1)NC[C@H](Cc1ccc2ccccc2c1)NCC1(c2ccccc2)CC1`, the CC50 in data set [1] came out at 0.52 µg/mL (≈ 1.09 µM). For the same compound, in data set [2], the selectivity ratio is 2.36. Also, the EC50 in data set [3] was determined as 0.22 µg/mL (≈ 0.461 µM).
As to `CNC[C@@H](CC1CCCCC1)NC[C@@H](Cc1ccc2ccccc2c1)NCCc1ccc(Cl)c(Cl)c1`, the CC50 in data set [1] was found to be 4.23 µg/mL (≈ 8.03 µM). Moreover, in data set [2], the selectivity ratio is 19.2. In addition, the EC50 in data set [3] amounted to 0.22 µg/mL (≈ 0.418 µM).
In the same order, the values of `CNC[C@@H](Cc1ccccc1)NC[C@@H](Cc1ccc2ccccc2c1)NCC1(c2ccccc2)CC1` are 1.53 µg/mL (≈ 3.2 µM), 5.46 and 0.28 µg/mL (≈ 0.586 µM).
The like results for `CNC[C@@H](Cc1ccc2ccccc2c1)NC[C@H](Cc1ccc2ccccc2c1)NCC1(c2ccccc2)CC1` were, in that order, 1.43 µg/mL (≈ 2.71 µM), 4.93 and 0.29 µg/mL (≈ 0.549 µM).
Take `CNC[C@@H](CC1CCCCC1)NC[C@@H](Cc1ccc2ccccc2c1)NCC(C)c1ccc(CC(C)C)cc1` (stereo not given in full): the CC50 in data set [1] worked out at 7.01 µg/mL (≈ 13.3 µM). For the same compound, the selectivity ratio in data set [2] came out at 24.1. The EC50 in data set [3] was found to be 0.29 µg/mL (≈ 0.549 µM).
For the compound `CNC[C@H](Cc1ccc2ccccc2c1)NC[C@H](Cc1ccc2ccccc2c1)NCCC1CCCCC1`, in data set [1], the CC50 stood at 1.77 µg/mL (≈ 3.49 µM). Further, the selectivity ratio in data set [2] came to 88.5. Also, the EC50 in data set [3] was found to be 0.02 µg/mL (≈ 0.0394 µM).
In the case of `CNC[C@H](Cc1ccc2ccccc2c1)NC[C@@H](Cc1ccc2ccccc2c1)NCC1(c2ccccc2)CC1`, the CC50 in data set [1] was determined as 1.6 µg/mL (≈ 3.03 µM). Besides, in data set [2], the selectivity ratio is 32. In addition, in data set [3], the EC50 was found to be 0.05 µg/mL (≈ 0.0947 µM).
In the case of `CNC[C@H](Cc1ccc2ccccc2c1)NC[C@H](Cc1ccc2ccccc2c1)NCC1(c2ccccc2)CC1`, the CC50 in data set [1] worked out at 2.18 µg/mL (≈ 4.13 µM). For the same compound, the selectivity ratio in data set [2] stood at 43.5. Besides, the EC50 in data set [3] amounted to 0.05 µg/mL (≈ 0.0947 µM).
Consider `CNC[C@H](Cc1ccc2ccccc2c1)NC[C@@H](Cc1ccc2ccccc2c1)NCCC1CCCCC1`, for which, in data set [1], the CC50 was found to be 1.6 µg/mL (≈ 3.15 µM). Further, in data set [2], the selectivity ratio amounted to 17.7. In addition, the EC50 in data set [3] was determined as 0.09 µg/mL (≈ 0.177 µM).
For the compound `CNC[C@H](Cc1ccc2ccccc2c1)NC[C@@H](Cc1ccc2ccccc2c1)NCC1CCC(C)CC1` (stereo not given in full), the CC50 in data set [1] was found to be 2.03 µg/mL (≈ 4 µM). In addition, in data set [2], the selectivity ratio worked out at 20.3. Moreover, the EC50 in data set [3] is 0.1 µg/mL (≈ 0.197 µM).
As for `CNC[C@@H](CC1CCCCC1)NC[C@H](Cc1ccc2ccccc2c1)NCC1CCC(C)CC1` (stereo not given in full), in data set [1], the CC50 is 6.9 µg/mL (≈ 14.9 µM). For the same compound, in data set [2], the selectivity ratio amounted to 69. In addition, in data set [3], the EC50 is 0.1 µg/mL (≈ 0.216 µM).
The like results for `CNC[C@@H](CC1CCCCC1)NC[C@H](Cc1ccc2ccccc2c1)NCC1(c2ccccc2)CC1` were, in that order, 1.71 µg/mL (≈ 3.53 µM), 15.7 and 0.11 µg/mL (≈ 0.227 µM).
In the case of `CNC[C@@H](CC1CCCCC1)NC[C@H](Cc1ccc2ccccc2c1)NCCC1CCCCC1`, the CC50 in data set [1] was determined as 0.11 µg/mL (≈ 0.237 µM). In addition, the EC50 in data set [3] came out at 0.11 µg/mL (≈ 0.237 µM).
As to `CCOc1ccc(CCN[C@H](CN[C@H](CNC)Cc2ccc3ccccc3c2)Cc2ccc3ccccc3c2)cc1`, the CC50 in data set [1] came out at 3.23 µg/mL (≈ 5.92 µM). Also, in data set [2], the selectivity ratio is 26. Moreover, the EC50 in data set [3] was 0.12 µg/mL (≈ 0.22 µM).
With `CNC[C@H](Cc1ccc2ccccc2c1)NC[C@@H](Cc1ccc2ccccc2c1)NCC(C)c1ccc(CC(C)C)cc1` (stereo not given in full), the CC50 in data set [1] came to 1.71 µg/mL (≈ 2.99 µM). Further, the selectivity ratio in data set [2] is 13. Further, the EC50 in data set [3] turned out to be 0.13 µg/mL (≈ 0.227 µM).
Turning to `CNC[C@@H](CC1CCCCC1)NC[C@@H](Cc1ccc2ccccc2c1)NCCC1CCCCC1`, in data set [1], the CC50 was found to be 1.59 µg/mL (≈ 3.43 µM). Besides, the selectivity ratio in data set [2] was 11.3. In addition, in data set [3], the EC50 was 0.14 µg/mL (≈ 0.302 µM).
Take `C[C@H]1[C@H](OC(=O)CCC(=O)O)O[C@@H]2O[C@@]3(C)CC[C@H]4[C@H](C)CC[C@@H]1[C@@]24OO3` [ARTESUNATE]: in data set [3], the IC50 was determined as 0.002 µg/mL (≈ 0.0052 µM).

As usually defined, the IC50 is the concentration that inhibits the measured activity by half.
